Experimental data: patent US20120258980A1, “Antibacterial Agent for Drug-Resistant Bacteria, Method for Screening for Same, and Use of Same” (priority 2009, published 2012)
In brackets after ≈: the same amount, converted by molar mass. Read-outs that look alike come from different tables or passages of the source.

What was measured:
[1] = tested on: MRSA, CA-MRSA and MSSA of Staphylococcus aureus; assay: MIC measurement, Test Example 4 (MRSA, CA-MRSA and MSSA strains); assay type: cell-based; settings: Staphylococcus aureus
In short: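 S. aureus strains (FDA209P control) grown overnight in TSB at 37° C, resuspended in CAMHB, adjusted to A578 0.3 and diluted 500-fold. Equal volume added to CAMHB with serial compound concentrations, incubated statically overnight at 37° C. MIC read visually as lowest concentration without turbidity.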

[2] = tested on: Enterococcus faecalis; assay: MIC measurement, Test Example 6 (enterococcus); assay type: cell-based; settings: Enterococcus faecalis, read-out: MIC
In short: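 Broth microdilution in cation-adjusted Mueller Hinton: inoculum from overnight TSB cultures adjusted to absorbance 0.3 at 578 nm and diluted 500×. Compounds at various concentrations; static 37° C overnight incubation. MIC = lowest concentration without visible turbidity; strains include two vancomycin-resistant NCTC isolates.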

[3] = tested on: VISA clinical isolates of MRSA (VI-MRSA) and of MSSA (VI-MSSA); assay: microbe, parasite or virus in culture; assay type: cell-based, Staphylococcus aureus
In short: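 Strains were grown overnight at 37° C in TSB, adjusted in CAMHB to 0.3 absorbance at 578 nm and diluted 500-fold before equal-volume addition to compound dilutions.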

[4] = tested on: methicillin-susceptible S. aureus (MSSA), MRSA and mutants thereof; assay: MIC measurement, Test Example 3 (MSSA, MRSA and sequential gyrA/grlA quinolone-resistant mutants); assay type: cell-based, Staphylococcus aureus; settings: Staphylococcus aureus
In short: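 Broth microdilution in cation-adjusted Mueller Hinton broth: inoculum from overnight TSB cultures set to A578 0.3, then 500-fold diluted and added 1:1 to serial compound concentrations.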

CCn1cc(C(=O)O)c(=O)c2cc(F)c(N3CCNCC3)cc21 [NFLX, norfloxacin] showed an MIC ([1]; ATCC 29213 / MRSA / MSSA, ATCC 29213, MSSA) of 1 µg/mL (≈ 3.13 µM), an MIC ([1]; COL, MRSA) of 1 µg/mL (≈ 3.13 µM) and an MIC ([1]; FDA209P / MRSA / MSSA, FDA209P, MSSA) of 0.25 µg/mL (≈ 0.783 µM). The MIC ([1]; ISA12-1, MRSA) was 1 µg/mL (≈ 3.13 µM), the MIC ([1]; ISA12-2, MRSA) was 1 µg/mL (≈ 3.13 µM) and the MIC ([1]; ISA35-1, MRSA) was 16 µg/mL (≈ 50.1 µM). For the same compound, the MIC ([1]; ISA37-1, MSSA) was 1 µg/mL (≈ 3.13 µM), the MIC ([1]; ISA49-1, MSSA) was 1 µg/mL (≈ 3.13 µM) and the MIC ([1]; ISA51-1, MSSA) was 0.5 µg/mL (≈ 1.57 µM). It also gave an MIC ([1]; ISA56-3, MRSA) of 0.25 µg/mL (≈ 0.783 µM), an MIC ([1]; ISA58-1, MRSA) of 1 µg/mL (≈ 3.13 µM) and an MIC ([1]; ISA62-1, MRSA) of 1 µg/mL (≈ 3.13 µM). It also gave an MIC ([1]; ISA73-1, MSSA) of 1 µg/mL (≈ 3.13 µM), an MIC ([1]; KBSA32, MRSA) of 0.5 µg/mL (≈ 1.57 µM) and an MIC ([1]; KBSA34, MRSA) of 1 µg/mL (≈ 3.13 µM). The MIC ([1]; KBSA72, MRSA) was > 128 µg/mL, the MIC ([1]; KBSA96, MRSA) was 128 µg/mL (≈ 401 µM) and the MIC ([1]; KBSA171, MRSA) was > 128 µg/mL. For the same compound, the MIC ([1]; KSA24, MRSA) was 128 µg/mL (≈ 401 µM), the MIC ([1]; KSA31, MRSA) was 32 µg/mL (≈ 100 µM) and the MIC ([1]; KSA36, MRSA) was > 128 µg/mL. It also gave an MIC ([1]; MRSA / MSSA / NCTC 8325, NCTC 8325, MSSA) of 1 µg/mL (≈ 3.13 µM), an MIC ([1]; MRSA / MSSA / USA300, USA300 FPR3757, CA-MRSA) of 32 µg/mL (≈ 100 µM) and an MIC ([1]; MW2, CA-MRSA) of 0.5 µg/mL (≈ 1.57 µM). It also gave an MIC ([1]; N315, MRSA) of 1 µg/mL (≈ 3.13 µM), an MIC ([2]; E. faecalis 36-15672, quinolone-susceptible enterococci) of 4 µg/mL (≈ 12.5 µM) and an MIC ([2]; E. faecalis 36-15673, quinolone-susceptible enterococci) of 4 µg/mL (≈ 12.5 µM). The MIC ([2]; E. faecalis 36-15678, quinolone-susceptible enterococci) was 4 µg/mL (≈ 12.5 µM), the MIC ([2]; E. faecalis 36-15686, quinolone-resistant enterococci) was > 128 µg/mL and the MIC ([2]; E. faecalis 36-15688, quinolone-susceptible enterococci) was 2 µg/mL (≈ 6.26 µM). For the same compound, the MIC ([2]; E. faecalis 36-15694, quinolone-resistant enterococci) was > 128 µg/mL, the MIC ([2]; E. faecalis 36-15696, quinolone-susceptible enterococci) was 4 µg/mL (≈ 12.5 µM) and the MIC ([2]; E. faecalis 36-15703, quinolone-resistant enterococci) was 64 µg/mL (≈ 200 µM). For the same compound, the MIC ([2]; E. faecalis 36-15716, quinolone-resistant enterococci) was > 128 µg/mL, the MIC ([2]; E. faecalis 36-15718, quinolone-susceptible enterococci) was 4 µg/mL (≈ 12.5 µM) and the MIC ([2]; E. faecalis 36-15720, quinolone-susceptible enterococci) was 8 µg/mL (≈ 25.1 µM). For the same compound, the MIC ([2]; E. faecalis 36-15722, quinolone-resistant enterococci) was 128 µg/mL (≈ 401 µM), the MIC ([2]; E. faecalis 36-15726, quinolone-resistant enterococci) was 128 µg/mL (≈ 401 µM) and the MIC ([2]; E. faecalis 36-15730, quinolone-susceptible enterococci) was 8 µg/mL (≈ 25.1 µM). The MIC ([2]; E. faecalis 36-15736, quinolone-susceptible enterococci) was 4 µg/mL (≈ 12.5 µM), the MIC ([2]; E. faecalis 36-15741, quinolone-susceptible enterococci) was 4 µg/mL (≈ 12.5 µM) and the MIC ([2]; NCTC 12201 / VRE, E. faecalis NCTC12201, vancomycin-resistant (VRE), quinolone-susceptible enterococci) was 2 µg/mL (≈ 6.26 µM). For the same compound, the MIC ([2]; NCTC 12203 / VRE, E. faecalis NCTC12203, vancomycin-resistant (VRE), quinolone-susceptible enterococci) was 2 µg/mL (≈ 6.26 µM), the MIC ([3]; Staphylococcus aureus, 99/3700-W, VI-MRSA, The United Kingdom) was 64 µg/mL (≈ 200 µM) and the MIC ([3]; Staphylococcus aureus, 99/3759-V, VI-MRSA, The United Kingdom) was 128 µg/mL (≈ 401 µM). The MIC ([3]; Staphylococcus aureus, 28160, VI-MRSA, South African Republic) was 64 µg/mL (≈ 200 µM), the MIC ([3]; Staphylococcus aureus, 98141, VI-MRSA, France) was 64 µg/mL (≈ 200 µM) and the MIC ([3]; Staphylococcus aureus, A7 (JCSC4842), VI-MRSA, Taiwan) was 32 µg/mL (≈ 100 µM). For the same compound, the MIC ([3]; Staphylococcus aureus, AMC11094, VI-MRSA, Korea) was 128 µg/mL (≈ 401 µM), the MIC ([3]; Staphylococcus aureus, B7 (JCSC4852), VI-MRSA, Taiwan) was 64 µg/mL (≈ 200 µM) and the MIC ([3]; Staphylococcus aureus, BR1, VI-MRSA, Brazil) was 128 µg/mL (≈ 401 µM). For the same compound, the MIC ([3]; Staphylococcus aureus, BR2, VI-MRSA, Brazil) was 64 µg/mL (≈ 200 µM), the MIC ([3]; Staphylococcus aureus, BR3, VI-MRSA, Brazil) was 64 µg/mL (≈ 200 µM) and the MIC ([3]; Staphylococcus aureus, BR4, VI-MRSA, Brazil) was 128 µg/mL (≈ 401 µM). It also gave an MIC ([3]; Staphylococcus aureus, BR5, VI-MRSA, Brazil) of 128 µg/mL (≈ 401 µM), an MIC ([3]; Staphylococcus aureus, HIP06297, VI-MRSA, America) of 64 µg/mL (≈ 200 µM) and an MIC ([3]; Staphylococcus aureus, HIP06854, VI-MRSA, America) of 128 µg/mL (≈ 401 µM). The MIC ([3]; Staphylococcus aureus, HIP07920, VI-MRSA, America) was 16 µg/mL (≈ 50.1 µM), the MIC ([3]; Staphylococcus aureus, HIP07930, VI-MRSA, America) was 128 µg/mL (≈ 401 µM) and the MIC ([3]; Staphylococcus aureus, HIP08926, VI-MRSA, America) was 64 µg/mL (≈ 200 µM). The MIC ([3]; Staphylococcus aureus, HIP09143, VI-MRSA, America) was > 128 µg/mL, the MIC ([3]; Staphylococcus aureus, HIP09313, VI-MRSA, America) was 32 µg/mL (≈ 100 µM) and the MIC ([3]; Staphylococcus aureus, HIP09433, VI-MRSA, America) was > 128 µg/mL. The MIC ([3]; Staphylococcus aureus, HIP09662, VI-MRSA, America) was 64 µg/mL (≈ 200 µM), the MIC ([3]; Staphylococcus aureus, HIP09735, VI-MRSA, America) was > 128 µg/mL and the MIC ([3]; Staphylococcus aureus, HIP09737, VI-MSSA, America) was > 128 µg/mL. For the same compound, the MIC ([3]; Staphylococcus aureus, HIP09740, VI-MRSA, America) was > 128 µg/mL, the MIC ([3]; Staphylococcus aureus, HIP10267, VI-MRSA, America) was > 128 µg/mL and the MIC ([3]; Staphylococcus aureus, HIP10540, VI-MRSA, America) was > 128 µg/mL. The MIC ([3]; Staphylococcus aureus, HIP12864, VI-MRSA, America) was 64 µg/mL (≈ 200 µM), the MIC ([3]; Staphylococcus aureus, HIP13036, VI-MRSA, America) was 16 µg/mL (≈ 50.1 µM) and the MIC ([3]; Staphylococcus aureus, HIP13057, VI-MRSA, America) was 128 µg/mL (≈ 401 µM). The MIC ([3]; Staphylococcus aureus, IL (HIP7737), VI-MRSA, America) was > 128 µg/mL, the MIC ([3]; Staphylococcus aureus, JCSC7193, VI-MRSA, Thailand) was 64 µg/mL (≈ 200 µM) and the MIC ([3]; Staphylococcus aureus, JCSC7195, VI-MRSA, Thailand) was 128 µg/mL (≈ 401 µM). The MIC ([3]; Staphylococcus aureus, JCSC7203, VI-MRSA, Thailand) was 64 µg/mL (≈ 200 µM), the MIC ([3]; Staphylococcus aureus, LIM2, VI-MRSA, France) was 128 µg/mL (≈ 401 µM) and the MIC ([3]; Staphylococcus aureus, LY-1999-01, VI-MSSA, Oman) was 16 µg/mL (≈ 50.1 µM). For the same compound, the MIC ([3]; Staphylococcus aureus, LY-1999-03, VI-MRSA, Oman) was 64 µg/mL (≈ 200 µM), the MIC ([3]; Staphylococcus aureus, MI (HIP5827), VI-MRSA, America) was 128 µg/mL (≈ 401 µM) and the MIC ([3]; Staphylococcus aureus, MRSA / MSSA / NRS 76 / VISA, NRS76, VI-MSSA, America) was 128 µg/mL (≈ 401 µM). For the same compound, the MIC ([3]; Staphylococcus aureus, MRSA / MSSA / NRS 79 / VISA, NRS79, VI-MRSA, America) was > 128 µg/mL, the MIC ([3]; Staphylococcus aureus, MRSA / MSSA / NRS 118 / VISA, NRS118, VI-MRSA, America) was 128 µg/mL (≈ 401 µM) and the MIC ([3]; Staphylococcus aureus, MRSA / MSSA / NRS 126 / VISA, NRS126, VI-MRSA, America) was 64 µg/mL (≈ 200 µM). The MIC ([3]; Staphylococcus aureus, Mu3, VI-MRSA, Japan) was 128 µg/mL (≈ 401 µM), the MIC ([3]; Staphylococcus aureus, Mu50, VI-MRSA, Japan) was 128 µg/mL (≈ 401 µM) and the MIC ([3]; Staphylococcus aureus, NJ (HIP5836), VI-MRSA, America) was 128 µg/mL (≈ 401 µM). It also gave an MIC ([3]; Staphylococcus aureus, P1V44, VI-MSSA, Belgium) of 4 µg/mL (≈ 12.5 µM), an MIC ([3]; Staphylococcus aureus, PC, VI-MRSA, America) of 64 µg/mL (≈ 200 µM) and an MIC ([3]; Staphylococcus aureus, SA MER-S6, VI-MSSA, France) of 2 µg/mL (≈ 6.26 µM). The MIC ([3]; Staphylococcus aureus, SA MER-S12, VI-MSSA, France) was 2 µg/mL (≈ 6.26 µM), the MIC ([3]; Staphylococcus aureus, SA MER-S20, VI-MSSA, France) was 0.5 µg/mL (≈ 1.57 µM) and the MIC ([4]; MR5867-2, second-step mutant, further gyrA S84L) was 64 µg/mL (≈ 200 µM). The MIC ([4]; MR5867-3, third-step mutant, further grlA S80F) was > 128 µg/mL and the MIC ([4]; MR5867-4, fourth-step mutant, further gyrA E88K) was > 128 µg/mL.
